Consider 11 molecules from patent US20250213701A1, “MEDICAMENT FOR TREATING HUMAN TUMOR BASED ON ERF3A-TARGETING PROTEOLYSIS MECHANISM” (SUZHOU DEGEN BIO-MEDICAL CO., LTD., priority 2022, published 2025).

Holding throughout (format): cell-based, human
The subject of experiment [1] is PC-3 cells. Kind of experiment: Anti-proliferative toxicity against prostate cancer cell line PC-3 (CCK8). The conditions noted are these: Homo sapiens, 72 h, 3 days. The method, then: (§1) Example 82: Detection of Anti-Proliferative Toxicity Against Prostate Cancer Cell Lines Vcap, 22Rv1, and PC-3
PC-3 cells (purchased from the Cell Bank of the Chinese Academy of Sciences, Cat. No. SCSP-532) were subcultured in a culture medium (F12K medium+1% penicillin-streptomycin dual-antibiotic solution+10% fetal bovine serum) in an incubator at 5% carbon dioxide and 37° C.
PC-3 cells were seeded at 4000 cells/well (90 μL) on a 96-well plate and cultured for 24 h.
(§2) 10 mM compound stock solutions were prepared in DMSO.
(§3) For 22Rv1 cells and PC-3 cells, the compound stock solution was diluted with DMSO to give DMSO solutions 11-19 at concentrations of 0 μM, 500 μM, 100 μM, 20 μM, 4 μM, 0.8 μM, 0.16 μM, 0.032 μM, 0.0064 μM.
For PC-3 cells, 2 μL of each of the above solutions 11-19 was added to 98 μL of PC-3 medium to give mixed solutions 39-47 of the compound and the medium.
(§4) For 22Rv1 and PC-3 cells, 10 μL of each of the above solutions 30-38 or 39-47 was added to the above cell seed solution to give a total volume of 100 μL (90 μL+10 μL), where the concentrations of the compound in wells were 0 μM, 1.0 μM, 0.2 μM, 0.04 μM, 0.008 μM, 0.0016 μM, 0.00032 μM, 0.00006 μM, and 0.00001 μM. All concentrations were in triplicate.
(§5) After the above-treated cells were cultured for 3 days, 10 μL of the CCK8 solution (DOJINDO, Cat. No. PF725) was added to each well. The plate was incubated in an incubator at 37° C. for 1-4 h and then detected on a microplate reader for the reading at 450 nm.

In experiment [2] the test system is VCaP cells. Kind of experiment: Anti-proliferative toxicity against prostate cancer cell line Vcap (CCK8). The note with it: 3 days; for IC50: Homo sapiens, 72 h, CCK8. How it is done:
as §1
(§6) Vcap cells (purchased from the Cell Bank of the Chinese Academy of Sciences, Cat. No. SCSP-5034) were subcultured in a culture medium (DMEM medium+1% penicillin-streptomycin dual-antibiotic solution+10% fetal bovine serum) in an incubator at 5% carbon dioxide and 37° C. 22Rv1 cells (purchased from the Cell Bank of the Chinese Academy of Sciences, Cat. No. TCHu100) were subcultured in a culture medium (RPMI-1640 medium+1% penicillin-streptomycin dual-antibiotic solution+10% fetal bovine serum) in an incubator at 5% carbon dioxide and 37° C.
VCap cells were seeded at 20000 cells/well (90 μL) on a 96-well plate and cultured for 72 h. The original medium was removed, and a new medium of 90 μL was added.
as §2
For VCap cells, the compound stock solution was diluted with DMSO to give DMSO solutions 1-10 at concentrations of 0 μM, 80 μM, 16 μM, 3.2 μM, 1.5 μM, 0.5 μM, 0.15 μM, 0.05 μM, 0.025 μM, and 0.0005 μM.
For Vcap cells, 2 μL of each of the above solutions 1-10 was added to 98 μL of Vcap medium to give mixed solutions 20-29 of the compound and the medium.
For Vcap cells, 10 μL of each of the above solutions 20-29 was added to the above cell seed solution to give a total volume of 100 μL (90 μL+10 μL), where the concentrations of the compound in wells were 0 μM, 0.16 μM, 0.032 μM, 0.006 μM, 0.003 μM, 0.001 μM, 0.0003 μM, 0.0001 μM, 0.00005 μM, and 0.00001 μM. All concentrations were in triplicate.
as §5

The subject of experiment [3] is 22Rv1 cells. Kind of experiment: Anti-proliferative toxicity against prostate cancer cell line 22Rv1 (CCK8). The note with it: 3 days; for IC50: Homo sapiens, 72 h, CCK8. How it is done:
as §1, §6
22Rv1 cells were seeded at 5000 cells/well (90 μL) on a 96-well plate and cultured for 48 h.
as §2, §3
For 22Rv1 cells, 2 μL of each of the above solutions 11-19 was added to 98 μL of 22Rv1 medium to give mixed solutions 30-38 of the compound and the medium.
as §4, §5

As a reminder, the IC50 is the concentration needed to halve the response being measured. A high value points to a need for much substance. In the case of `C[C@]12C=CC(=O)N[C@@H]1CC[C@@H]1[C@@H]2CC[C@]2(C)[C@@H](C(=O)Nc3cccc(OCCCNc4cccc5c4C(=O)N(C4CCC(=O)NC4=O)C5=O)c3)CC[C@@H]12` (stereo partly drawn) [C29, N-(3-((3-((4-(2-(3-(2,6-dioxopiperidine))-isoindole-1,3-dione))amino)propyl)oxy)phenyl)-3-oxo-4-aza-5α-androst-1-ene-17β-carboxamide], the IC50 in experiment [1] is over 1000 nM; in experiment [2], 0.1 to 10 nM; in experiment [3] it was 0.1 to 10 nM. For the same molecule, the “Anti-proliferative toxicity data in VCaP cells” value worked out at 0.4% in experiment [2] (0.00005 μM); 25.8% in experiment [2] (0.00010 μM); 40.3% in experiment [2] (0.00030 μM); 70.8% in experiment [2] (0.00100 μM); 80.1% in experiment [2] (0.00300 μM); 88.3% in experiment [2] (0.00600 μM). The “Anti-proliferative toxicity data in VCaP cells” value is given as 89.4% in experiment [2] (0.03200 μM) and 90.0% in experiment [2] (0.16000 μM). In addition, the “Anti-proliferative toxicity data in 22Rv1 cells” value in experiment [3] (0.00006 μM) came to 0.2%; in experiment [3] (0.00032 μM), 5.6%; in experiment [3] (0.00160 μM), 27.6%; in experiment [3] (0.00800 μM) it was 64.2%; in experiment [3] (0.04000 μM) it was 70.8%; in experiment [3] (0.20000 μM), 72.4%. In experiment [3] (1.00000 μM), the “Anti-proliferative toxicity data in 22Rv1 cells” value was found to be 73.5%.
Consider `C[C@]12C=CC(=O)N[C@@H]1CC[C@@H]1[C@@H]2CC[C@]2(C)[C@@H](C(=O)Nc3cccc(OCCCNc4ccc5c(c4)C(=O)N(C4CCC(=O)NC4=O)C5=O)c3)CC[C@@H]12` (stereo partly drawn) [C30, N-(3-((3-((5-(2-(3-(2,6-dioxopiperidine))-isoindole-1,3-dione))amino)propyl)oxy)phenyl)-3-oxo-4-aza-5α-androst-1-ene-17β-carboxamide], for which the 50% inhibitory concentration (IC50) in experiment [1], in experiment [2] and in experiment [3] was over 1000 nM throughout.
For the molecule `C[C@]12C=CC(=O)N[C@@H]1CC[C@@H]1[C@@H]2CC[C@]2(C)[C@@H](C(=O)Nc3cccc(OCCCCNc4cccc5c4C(=O)N(C4CCC(=O)NC4=O)C5=O)c3)CC[C@@H]12` (stereo partly drawn) [C31, N-(3-((4-((4-(2-(3-(2,6-dioxopiperidine))-isoindole-1,3-dione))amino)butyl)oxy)phenyl)-3-oxo-4-aza-5α-androst-1-ene-17β-carboxamide], the half-maximal inhibitory concentration (IC50) in experiment [1], in experiment [2] and in experiment [3] was over 1000 nM each time.
As to `C[C@]12C=CC(=O)N[C@@H]1CC[C@@H]1[C@@H]2CC[C@]2(C)[C@@H](C(=O)Nc3cccc(OCCCCNc4ccc5c(c4)C(=O)N(C4CCC(=O)NC4=O)C5=O)c3)CC[C@@H]12` (stereo partly drawn) [C32, N-(3-((4-((5-(2-(3-(2,6-dioxopiperidine))-isoindole-1,3-dione))amino)butyl)oxy)phenyl)-3-oxo-4-aza-5α-androst-1-ene-17β-carboxamide], the half-maximal inhibitory concentration (IC50) in experiment [1], in experiment [2] and in experiment [3] was over 1000 nM each time.
With `C[C@]12C=CC(=O)N[C@@H]1CC[C@@H]1[C@@H]2CC[C@]2(C)[C@@H](C(=O)Nc3cccc(OCCCCCNc4cccc5c4C(=O)N(C4CCC(=O)NC4=O)C5=O)c3)CC[C@@H]12` (stereo partly drawn) [C33, N-(3-((5-((4-(2-(3-(2,6-dioxopiperidine))-isoindole-1,3-dione))amino)pentyl)oxy)phenyl)-3-oxo-4-aza-5α-androst-1-ene-171β-carboxamide], the concentration for half-maximal inhibition (IC50) in experiment [1], in experiment [2] and in experiment [3] was over 1000 nM each time.
As to `C[C@]12C=CC(=O)N[C@@H]1CC[C@@H]1[C@@H]2CC[C@]2(C)[C@@H](C(=O)Nc3cccc(OCCCCCCNc4cccc5c4C(=O)N(C4CCC(=O)NC4=O)C5=O)c3)CC[C@@H]12` (stereo partly drawn) [C35, N-(3-((6-((4-(2-(3-(2,6-dioxopiperidine))-isoindole-1,3-dione))amino)hexyl)oxy)phenyl)-3-oxo-4-aza-5α-androst-1-ene-17β-carboxamide], the concentration for half-maximal inhibition (IC50) in experiment [1], in experiment [2] and in experiment [3] was over 1000 nM throughout.
As for `C[C@]12C=CC(=O)N[C@@H]1CC[C@@H]1[C@@H]2CC[C@]2(C)[C@@H](C(=O)Nc3cccc(OCCCCCCNc4ccc5c(c4)C(=O)N(C4CCC(=O)NC4=O)C5=O)c3)CC[C@@H]12` (stereo partly drawn) [C36, N-(3-((6-((5-(2-(3-(2,6-dioxopiperidine))-isoindole-1,3-dione))amino)hexyl)oxy)phenyl)-3-oxo-4-aza-5α-androst-1-ene-17β-carboxamide], the IC50 in experiment [1], in experiment [2] and in experiment [3] was over 1000 nM in each case.
Turning to `C[C@]12C=CC(=O)N[C@@H]1CC[C@@H]1[C@@H]2CC[C@]2(C)[C@@H](C(=O)Nc3cccc(OCCCCCCCNc4cccc5c4C(=O)N(C4CCC(=O)NC4=O)C5=O)c3)CC[C@@H]12` (stereo partly drawn) [C37, N-(3-((7-((4-(2-(3-(2,6-dioxopiperidine))-isoindole-1,3-dione))amino)heptyl)oxy)phenyl)-3-oxo-4-aza-5α-androst-1-ene-17β-carboxamide], the 50% inhibitory concentration (IC50) in experiment [1], in experiment [2] and in experiment [3] was over 1000 nM in each case.
For `C[C@]12C=CC(=O)N[C@@H]1CC[C@@H]1[C@@H]2CC[C@]2(C)[C@@H](C(=O)Nc3cccc(OCCCCCCCCNc4cccc5c4C(=O)N(C4CCC(=O)NC4=O)C5=O)c3)CC[C@@H]12` (stereo partly drawn) [C39, N-(3-((8-((4-(2-(3-(2,6-dioxopiperidine))-isoindole-1,3-dione))amino)octyl)oxy)phenyl)-3-oxo-4-aza-5α-androst-1-ene-17β-carboxamide], the 50% inhibitory concentration (IC50) in experiment [1], in experiment [2] and in experiment [3] was over 1000 nM each time.
On to `C[C@]12C=CC(=O)N[C@@H]1CC[C@@H]1[C@@H]2CC[C@]2(C)[C@@H](C(=O)Nc3cccc(OCCCCCCCCNc4ccc5c(c4)C(=O)N(C4CCC(=O)NC4=O)C5=O)c3)CC[C@@H]12` (stereo partly drawn) [C40, N-(3-((8-((5-(2-(3-(2,6-dioxopiperidine))-isoindole-1,3-dione))amino)octyl)oxy)phenyl)-3-oxo-4-aza-5α-androst-1-ene-17β-carboxamide], for which the IC50 in experiment [1] was over 1000 nM; in experiment [2], 10 to 1000 nM; in experiment [3], over 1000 nM.
In the case of `C[C@]12C=CC(=O)N[C@@H]1CC[C@@H]1[C@@H]2CC[C@]2(C)[C@@H](C(=O)Nc3cccc(OCCCNc4cccc5c4CN(C4CCC(=O)NC4=O)C5=O)c3)CC[C@@H]12` (stereo partly drawn) [C41, N-(3-((3-((4-(2-(3-(2,6-dioxopiperidine))-1-oxo-2,3-dihydro-1H-isoindol))amino)propyl)oxy)phenyl)-3-oxo-4-aza-5α-androst-1-ene-17β-carboxamide], the IC50 in experiment [1] is over 1000 nM; in experiment [2], 0.1 to 10 nM; in experiment [3] it was 0.1 to 10 nM.
